Test results: ChEMBL document CHEMBL3217491, “Design, synthesis and biological evaluation of imidazopyridine/pyrimidine-chalcone derivatives as potential anticancer agents” (2010)
Calls of active or inactive are those of the source. The rule behind the calls is not given here.

Columns and labels:
[1] = system: NCI-H23; test: Growth inhibition of human NCI-H23 cells after 48 hrs by SRB assay; format: functional; conditions: NCI-H23, 48 h
[2] = system: MDA-MB-468; test: Growth inhibition of human MDA-MB-468 cells after 48 hrs by SRB assay; format: functional; conditions: MDA-MB-468, 48 h
[3] = system: Malme-3M; test: Growth inhibition of human MALME-3M cells after 48 hrs by SRB assay; format: functional
[4] = system: COLO 205; test: Growth inhibition of human COLO205 cells after 48 hrs by SRB assay; format: functional; conditions: COLO 205, 48 h
[5] = Growth inhibition of human MOLT4 cells after 48 hrs by SRB assay; format: functional; conditions: MOLT-4, 48 h
[6] = Growth inhibition of human RXF393 cells after 48 hrs by SRB assay; format: functional; conditions: RXF 393, 48 h
[7] = system: K562; test: Growth inhibition of human K562 cells after 48 hrs by SRB assay; format: functional; conditions: K562, 48 h
[8] = system: 786-0; test: Growth inhibition of human 786-0 cells after 48 hrs by SRB assay; format: functional; conditions: 786-0, 48 h
[9] = Growth inhibition of human UO31 cells after 48 hrs by SRB assay; format: functional; conditions: UO-31, 48 h
[10] = system: NCI-H522; test: Growth inhibition of human NCI-H522 cells after 48 hrs by SRB assay; format: functional; conditions: NCI-H522, 48 h
[11] = system: T47D; test: Growth inhibition of human T47D cells after 48 hrs by SRB assay; format: functional
[12] = system: ACHN; test: Growth inhibition of human ACHN cells after 48 hrs by SRB assay; format: functional
[13] = system: IGROV-1; test: Growth inhibition of human IGROV1 cells after 48 hrs by SRB assay; format: functional; conditions: IGROV-1, 48 h
[14] = system: SK-OV-3; test: Growth inhibition of human SKOV3 cells after 48 hrs by SRB assay; format: functional; conditions: SK-OV-3, 48 h
[15] = system: SNB-19; test: Growth inhibition of human SNB19 cells after 48 hrs by SRB assay; format: functional; conditions: SNB-19, 48 h
[16] = system: SW-620; test: Growth inhibition of human SW620 cells after 48 hrs by SRB assay; format: functional; conditions: SW-620, 48 h
[17] = system: RPMI-8226; test: Growth inhibition of human RPMI8226 cells after 48 hrs by SRB assay; format: functional; conditions: RPMI-8226, 48 h
[18] = Growth inhibition of human HOP92 cells after 48 hrs by SRB assay; format: functional; conditions: HOP-92, 48 h
[19] = system: SK-MEL-5; test: Growth inhibition of human SK-MEL-5 cells after 48 hrs by SRB assay; format: functional; conditions: SK-MEL-5, 48 h
[20] = system: KM12; test: Growth inhibition of human KM12 cells after 48 hrs by SRB assay; format: functional; conditions: KM12, 48 h
[21] = Growth inhibition of human HCC2998 cells after 48 hrs by SRB assay; format: functional; conditions: HCC 2998, 48 h
[22] = Growth inhibition of human SF295 cells after 48 hrs by SRB assay; format: functional; conditions: SF-295, 48 h
[23] = system: SN12C; test: Growth inhibition of human SN12C cells after 48 hrs by SRB assay; format: functional
[24] = Growth inhibition of human OVCAR5 cells after 48 hrs by SRB assay; format: functional; conditions: OVCAR-5, 48 h
[25] = Growth inhibition of human OVCAR3 cells after 48 hrs by SRB assay; format: functional; conditions: OVCAR-3, 48 h
[26] = system: U-251; test: Growth inhibition of human U251 cells after 48 hrs by SRB assay; format: functional; conditions: U-251, 48 h
[27] = system: MCF7; test: Growth inhibition of human MCF7 cells assessed as cell viability at 4 uM after 24 hrs by MTT assay; format: functional, cell-based
[28] = Growth inhibition of human UACC62 cells after 48 hrs by SRB assay; format: functional; conditions: UACC-62, 48 h
[29] = system: NCI-H322M; test: Growth inhibition of human NCI-H322M cells after 48 hrs by SRB assay; format: functional
[30] = system: MCF7; test: Growth inhibition of human MCF7 cells after 48 hrs by SRB assay; format: functional; conditions: MCF7, 48 h
[31] = system: NCI-H460; test: Growth inhibition of human NCI-H460 cells after 48 hrs by SRB assay; format: functional; conditions: NCI-H460, 48 h
[32] = Growth inhibition of human EKVX cells after 48 hrs by SRB assay; format: functional
[33] = system: TK-10; test: Growth inhibition of human TK10 cells after 48 hrs by SRB assay; format: functional; conditions: TK-10, 48 h
[34] = Growth inhibition of human NCI-ADR-RES cells after 48 hrs by SRB assay; format: functional
[35] = Growth inhibition of human HCT15 cells after 48 hrs by SRB assay; format: functional; conditions: HCT-15, 48 h
[36] = system: SK-MEL-2; test: Growth inhibition of human SK-MEL-2 cells after 48 hrs by SRB assay; format: functional; conditions: SK-MEL-2, 48 h
[37] = system: MDA-MB-231; test: Growth inhibition of human MDA-MB-231 cells after 48 hrs by SRB assay; format: functional; conditions: MDA-MB-231, 48 h
[38] = Growth inhibition of human SF539 cells after 48 hrs by SRB assay; format: functional; conditions: SF-539, 48 h
[39] = system: A549; test: Growth inhibition of human A549 cells after 48 hrs by SRB assay; format: functional; conditions: A549, 48 h
[40] = system: MCF7; test: Cell cycle arrest in human MCF7 cells assessed as accumulation at G2/M phase at 4 uM after 24 hrs by propidium iodide staining-based flow cytometry (reference value: 15.79%); format: functional
[41] = Growth inhibition of human UACC257 cells after 48 hrs by SRB assay; format: functional; conditions: UACC-257, 48 h
[42] = system: M14; test: Growth inhibition of human M14 cells after 48 hrs by SRB assay; format: functional; conditions: M14, 48 h
[43] = system: MCF7; test: Cell cycle arrest in human MCF7 cells assessed as accumulation at G0/G1 phase at 4 uM after 24 hrs by propidium iodide staining-based flow cytometry (reference value: 64.04%); format: functional
[44] = system: NCI-H226; test: Growth inhibition of human NCI-H226 cells after 48 hrs by SRB assay; format: functional; conditions: NCI-H226, 48 h
[45] = system: MCF7; test: Cell cycle arrest in human MCF7 cells assessed as accumulation at S phase at 4 uM after 24 hrs by propidium iodide staining-based flow cytometry (reference value: 20.17%); format: functional
[46] = system: HCT-116; test: Growth inhibition of human HCT116 cells after 48 hrs by SRB assay; format: functional; conditions: HCT-116, 48 h
[47] = system: SR; test: Growth inhibition of human SR cells after 48 hrs by SRB assay; format: functional
[48] = Growth inhibition of human BT549 cells after 48 hrs by SRB assay; format: functional; conditions: BT-549, 48 h
[49] = Growth inhibition of human Hs578T cells after 48 hrs by SRB assay; format: functional; conditions: Hs-578T
[50] = system: A498; test: Growth inhibition of human A498 cells after 48 hrs by SRB assay; format: functional; conditions: A498, 48 h
[51] = system: CAKI-1; test: Growth inhibition of human Caki1 cells after 48 hrs by SRB assay; format: functional; conditions: CAKI-1, 48 h
[52] = system: SNB-75; test: Growth inhibition of human SNB75 cells after 48 hrs by SRB assay; format: functional; conditions: SNB-75, 48 h
[53] = system: MDA-MB-435; test: Growth inhibition of human MDA-MB-435 cells after 48 hrs by SRB assay; format: functional; conditions: MDA-MB-435, 48 h
[54] = system: HL-60(TB); test: Growth inhibition of human HL-60(TB) cells after 48 hrs by SRB assay; format: functional; conditions: HL-60, 48 h
[55] = Growth inhibition of human OVCAR4 cells after 48 hrs by SRB assay; format: functional; conditions: OVCAR-4, 48 h
[56] = Growth inhibition of human LOXIMVI cells after 48 hrs by SRB assay; format: functional; conditions: LOX IMVI
[57] = system: SK-MEL-28; test: Growth inhibition of human SK-MEL-28 cells after 48 hrs by SRB assay; format: functional; conditions: SK-MEL-28, 48 h
[58] = system: DU-145; test: Growth inhibition of human DU145 cells after 48 hrs by SRB assay; format: functional; conditions: DU-145, 48 h
[59] = system: HT-29; test: Growth inhibition of human HT-29 cells after 48 hrs by SRB assay; format: functional; conditions: HT-29, 48 h
[60] = system: CCRF-CEM; test: Growth inhibition of human CCRF-CEM cells after 48 hrs by SRB assay; format: functional
[61] = system: SF-268; test: Growth inhibition of human SF268 cells after 48 hrs by SRB assay; format: functional; conditions: SF-268, 48 h
[62] = system: HOP-62; test: Growth inhibition of human HOP62 cells after 48 hrs by SRB assay; format: functional; conditions: HOP-62, 48 h
[63] = system: PC-3; test: Growth inhibition of human PC3 cells after 48 hrs by SRB assay; format: functional; conditions: PC-3, 48 h
[64] = Growth inhibition of human OVCAR8 cells after 48 hrs by SRB assay; format: functional; conditions: OVCAR-8, 48 h

With `COc1ccc(-c2nc3ncccn3c2/C=C/C(=O)c2cc(OC)c(OC)c(OC)c2)cc1` the GI50 [1] was 1.35 µM, the GI50 [2] was 1.81 µM and the GI50 [3] was 1.81 µM. The GI50 [4] was 1.7 µM, the GI50 [5] was 3.1 µM and the GI50 [6] was 1.11 µM. It also gave a GI50 [7] of 2.63 µM, a GI50 [8] of 1.84 µM and a GI50 [9] of 0.51 µM. The GI50 [10] was 1.66 µM, the GI50 [11] was 2.53 µM and the GI50 [12] was 1.57 µM. It also gave a GI50 [13] of 2.2 µM, a GI50 [14] of 2.5 µM and a GI50 [15] of 3.01 µM. For the same molecule, the GI50 [16] was 1.75 µM, the GI50 [17] was 2.21 µM and the GI50 [18] was 1.43 µM. The GI50 [19] was 1.52 µM, the GI50 [20] was 1.61 µM and the GI50 [21] was 1.58 µM. The GI50 [22] was 2.39 µM, the GI50 [23] was 2.56 µM and the GI50 [24] was 1.53 µM. For the same molecule, the GI50 [25] was 1.75 µM, the GI50 [26] was 1.29 µM and the inhibition [27] was “Active”. It also gave a GI50 [28] of 1.88 µM, a GI50 [29] of 1.76 µM and a GI50 [30] of 1.14 µM. The GI50 [31] was 1.43 µM, the GI50 [32] was 1.61 µM and the GI50 [33] was 2.88 µM. The GI50 [34] was 1.56 µM, the GI50 [35] was 1.38 µM and the GI50 [36] was 1.87 µM. For the same molecule, the GI50 [37] was 2.73 µM, the GI50 [38] was 1.36 µM and the GI50 [39] was 2.71 µM. The Activity [40] was 1.53%, the GI50 [41] was 1.82 µM and the GI50 [42] was 1.53 µM. It also gave an Activity [43] of 90.04%, a GI50 [44] of 2.28 µM and an Activity [45] of 8.43%. The GI50 [46] was 1.17 µM, the GI50 [47] was 1.53 µM and the GI50 [48] was 1.45 µM. For the same molecule, the GI50 [49] was 1.91 µM, the GI50 [50] was 2.13 µM and the GI50 [51] was 1.58 µM. The GI50 [52] was 1.89 µM, the GI50 [53] was 2.28 µM and the GI50 [54] was 2.52 µM. It also gave a GI50 [55] of 2.91 µM, a GI50 [56] of 1.46 µM and a GI50 [57] of 1.65 µM. For the same molecule, the GI50 [58] was 2.55 µM, the GI50 [59] was 2.19 µM and the GI50 [60] was 4.01 µM. It also gave a GI50 [61] of 2.36 µM, a GI50 [62] of 2.83 µM and a GI50 [63] of 4.32 µM. It also gave a GI50 [64] of 2.72 µM.
